Assay results published in patent publication US20250230148A1, “CRYSTAL OF FUSED TRICYCLIC DERIVATIVE OR PHARMACEUTICALLY ACCEPTABLE SALT THEREOF” (CHIA TAI TIANQING PHARMACEUTICAL GROUP CO., LTD., priority 2022, published 2025).

Experiments:
M2 receptor = M2 receptor (Homo sapiens (Human), UniProt P08172); test: M2 receptor affinity test (3H-NMS competition); format: binding; details: M2 receptor membrane protein, 0.2 nM 3H-NMS
Procedure: M2 receptor is a G protein-coupled receptor. In this experiment, the activity of test compound against the M2 receptor in vitro was assayed by the competition of radioisotope labeled NMS and non-isotope labeled test compound for an M2 binding site.
The M2 receptor membrane protein was prepared at 100 μg/mL by Biology Department of WuXi AppTec, and compound was serially diluted in a 2.5-fold gradient in DMSO to obtain 10 concentrations. Radioisotope 3H-NMS was prepared at 0.2 nM in an assay buffer (10 mM HEPES, 1 mM MgCl2, pH 7.40). In formal testing, the experimental system comprising 1 μL of the test compound, 100 μL of M2 receptor membrane protein and 100 μL of radioisotope was shaken in a shaker at 300 RPM for 2 h at room temperature. A GF/C plate (Perkin Elmer, Cat No. 6055690) was prefoamed with 0.3% PEI, and the membrane proteins in the reaction solution were collected by filtration onto the GF/C plate. The signal values were read by a Perkin Elmer Microbeta2 instrument and the inhibition rate for each concentration point was shown as a percentage.

[1] = Crystal stability under high humidity conditions, TGA after placement; format: physicochemical; details: 24 hours
Procedure: • Instrument model: TA Q5000/5500 Thermal Gravimetric Analyzer • Test method: Taking a sample (about 1 to 5 mg) and placing in a TGA aluminum dish for testing, and heating the sample from room temperature to 350° C. at a heating rate of 10° C./min under 10 mL/min N2 conditions.
The crystal form C of the compound of formula (I) was placed under different humidity conditions at room temperature and then tested by TGA to preliminarily evaluate its water content changes under different humidity conditions.

[2] = Dynamic vapor sorption (DVS) test; format: physicochemical
Procedure: • Instrument model: SMS DVS Advantage Dynamic Vapor Sorption Analyzer • Test conditions: Taking a sample (10 to 15 mg) and placing in a DVS sample dish for testing. • Detailed DVS parameters are as follows: • Temperature: 25° C. • Equilibration: dm/dt=0.01%/min (Minimum: 10 min, Maximum: 180 min) • Drying: drying 120 min under 0% RH • RH (%) test gradient: 10% • RH (%) test gradient range: 0% to 90% to 0%.
At the same time, a DVS test was performed on the crystal form C of the compound of formula (I).

[3] = Crystal stability under 94% RH, XRPD after placement; format: physicochemical; details: 94% RH at room temperature for 1 to 2 weeks
Procedure: • Instrument model: X' Pert3. • Method: taking a sample of about 10 to 20 mg for XRPD analysis. • Detailed XRPD parameters are as follows: • X-ray source: Cu, kα (Kα1=1.540598 Δ, Kα2=1.544426 Δ, Kα2/Kα1 intensity ratio: 0.5) • Tube voltage: 45 kV, tube current: 40 mA • Divergence slit: fixed ⅛° • First seller slit: 0.04 rad, Second soller slit: 0.04 rad • Receiving slit: none, Anti-scatter slit: 7.5 mm • Measurement time: 5 min • scan range: 3 to 40° • Step width angle: 0.0263° • Step length: 46.665 seconds • Rotation speed of sample plate: 60 rpm
The crystal form E of the compound of formula (I) was placed under 94% RH at room temperature for 1 to 2 weeks and then subjected to XRPD testing to evaluate its solid stability in the high humidity environment.

Chain of M2 receptor (P08172 whole entry): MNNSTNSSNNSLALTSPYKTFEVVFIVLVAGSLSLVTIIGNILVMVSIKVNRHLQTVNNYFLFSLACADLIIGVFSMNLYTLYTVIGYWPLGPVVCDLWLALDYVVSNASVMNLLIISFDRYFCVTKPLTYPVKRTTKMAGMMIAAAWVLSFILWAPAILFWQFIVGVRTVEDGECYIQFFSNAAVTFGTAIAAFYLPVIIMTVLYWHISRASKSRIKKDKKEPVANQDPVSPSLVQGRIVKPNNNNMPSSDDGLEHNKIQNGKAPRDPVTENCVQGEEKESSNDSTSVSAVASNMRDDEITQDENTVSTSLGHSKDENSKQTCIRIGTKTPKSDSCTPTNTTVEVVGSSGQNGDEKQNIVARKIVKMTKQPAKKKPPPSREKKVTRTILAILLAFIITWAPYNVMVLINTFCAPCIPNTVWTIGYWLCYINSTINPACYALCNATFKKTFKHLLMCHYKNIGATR

CN(CCCn1nnc2cc(CNC[C@H](O)c3ccc(O)c4[nH]c(=O)ccc34)c3c(c21)CCC3)[C@H]1CC[C@H](OC(=O)C(O)(c2cccs2)c2cccs2)CC1 [listing 1 of 3 here]
IC50 (M2 receptor): 0.062 nM

CN(CCCn1nnc2cc(CNC[C@H](O)c3ccc(O)c4[nH]c(=O)ccc34)c3c(c21)CCC3)[C@H]1CC[C@H](OC(=O)C(O)(c2cccs2)c2cccs2)CC1 [listing 2 of 3 here]
TGA weight loss (%, 150° C) ([1]; ~81% RH (saturated potassium bromide solution)/room temperature): 10.4%
TGA weight loss (%, 150° C) ([1]; ~94% RH (saturated potassium nitrate solution)/room temperature): 9.9%
moisture adsorption ([2]; 25° C./80% RH): 7.84%
crystal form after the DVS test (XRPD) ([2]; XRPD before and after DVS test): remained unchanged

CN(CCCn1nnc2cc(CNC[C@H](O)c3ccc(O)c4[nH]c(=O)ccc34)c3c(c21)CCC3)[C@H]1CC[C@H](OC(=O)C(O)(c2cccs2)c2cccs2)CC1 [listing 3 of 3 here]
crystal form after placement (XRPD) [3]: remained unchanged
